Assays:
[1] = test system: Hepatocellular carcinoma (HePG2); experiment: Antitumor screening using MTT assay; assay type: cell-based, human; conditions: Homo sapiens; for viability at 1.56 µM: Conc. 1.56 µM; for viability at 1.56 µM / viability at 3.125 µM / viability at 6.25 µM / viability at 12.5 µM / viability at 25 µM / viability at 50 µM / viability at 100 µM: read-out: Average of Relative viability of cells (%); for viability at 3.125 µM: Conc. 3.125 µM; for viability at 6.25 µM: Conc. 6.25 µM; for viability at 12.5 µM: Conc. 12.5 µM; for viability at 25 µM: Conc. 25 µM; for viability at 50 µM: Conc. 50 µM; for viability at 100 µM: Conc. 100 µM; for IC50: mean ± SD, n = 3, read-out: In-vitro cytotoxicity IC50 (µM) HePG2
Description: (§2) Hepatocellular carcinoma (HePG2), mammary gland breast cancer (MCF-7), epithelioid carcinoma cervix cancer (Hela), and human prostate cancer were included on the panel (PC3). […] The cell lines were obtained from the American Type Culture Collection (ATCC) through VACSERA, a Cairo-based holding firm for biological goods and vaccines.
(§3) The panel consisted of hepatocellular carcinoma (HePG2), mammary gland breast cancer (MCF-7), epithelioid carcinoma cervix cancer (Hela) and human prostate cancer (PC3). Human lung fibroblast (WI38) was used to assay the cytotoxicity effect on normal cell. The cell lines were obtained from ATCC via Holding company for biological products and vaccines (VACSERA), Cairo, Egypt. The cytotoxic activity was defined as the concentration of the compound that causes 50% growth inhibition compared with the growth of untreated cells.

[2] = test system: human prostate cancer (PC3); experiment: Antitumor screening using MTT assay; conditions: Homo sapiens; for viability at 1.56 µM / viability at 3.125 µM / viability at 6.25 µM / viability at 12.5 µM / viability at 25 µM / viability at 50 µM / viability at 100 µM: read-out: Average of Relative viability of cells (%); for IC50: read-out: In-vitro cytotoxicity IC50 (µM) PC3
Description: as §2, §3

[3] = test system: HePG2, MCF-7, Hela, PC3 cell lines; experiment: Antitumor screening using MTT assay, statements across several cell lines; assay type: cell-based, human; conditions: Homo sapiens; Hela and PC3; one range for 9 and 10 together; read-out: IC50 values range against Hela and PC3 cell line
Description: as §2, §3

[4] = test system: human lung fibroblast (WI38); experiment: In vitro cytotoxicity against human normal cell line (MTT); assay type: cell-based; conditions: Homo sapiens, WI-38, human normal cell line WI38; mean ± SD, n = 3
Description: (§1) The anticancer agent's selectivity for cancer cells is a critical consideration for any researcher, as it can decrease the molecule's adverse effects on normal human cells.

[5] = as above; assay type: cell-based; conditions: human, WI38, read-out: Average of Relative viability of cells (%); for viability at 3.125 µM: WI38 human lung fibroblast cells (normal cell line), Conc. 3.125 µM; for viability at 1.56 µM / viability at 6.25 µM / viability at 12.5 µM / viability at 25 µM / viability at 50 µM / viability at 100 µM: WI38 normal lung fibroblast cells; for viability at 1.56 µM: Conc. 1.56 µM; for viability at 6.25 µM: Conc. 6.25 µM; for viability at 12.5 µM: Conc. 12.5 µM; for viability at 25 µM: Conc. 25 µM; for viability at 50 µM: Conc. 50 µM; for viability at 100 µM: Conc. 100 µM
Description: as §1

[6] = test system: mammary gland breast cancer (MCF-7); experiment: Antitumor screening using MTT assay; conditions: Homo sapiens; for viability at 1.56 µM / viability at 3.125 µM / viability at 6.25 µM / viability at 12.5 µM / viability at 25 µM / viability at 50 µM / viability at 100 µM: MCF7, read-out: Average of Relative viability of cells (%); for IC50: MCF7, read-out: In-vitro cytotoxicity IC50 (µM) MCF-7
Description: as §2, §3

[7] = test system: epithelioid carcinoma cervix cancer (Hela); experiment: Antitumor screening using MTT assay; conditions: Homo sapiens, HeLa; for viability at 1.56 µM / viability at 3.125 µM / viability at 6.25 µM / viability at 12.5 µM / viability at 25 µM / viability at 50 µM / viability at 100 µM: read-out: Average of Relative viability of cells (%); for IC50: read-out: In-vitro cytotoxicity IC50 (µM) Hela
Description: as §2, §3

COc1ccccc1/C=N/N=C(\C)c1cc2ccccc2o1 [Compound 10, (E)-1-[1-(benzofuran-2-yl)ethylidene]-2-((E)-2-methoxybenzylidene)hydrazine]
viability at 1.56 µM [1]: 100%
viability at 3.125 µM [1]: 100%
viability at 6.25 µM [1]: 91.9%
viability at 12.5 µM [1]: 72.7%
viability at 25 µM [1]: 63.1%
viability at 50 µM [1]: 50.2%
viability at 100 µM [1]: 38.1%
IC50 [1]: 51 ± 3 µM
melting point: 154 to 156 °C
viability at 1.56 µM [2]: 100%
viability at 3.125 µM [2]: 96.3%
viability at 6.25 µM [2]: 78.2%
viability at 12.5 µM [2]: 59.1%
viability at 25 µM [2]: 46.8%
viability at 50 µM [2]: 37%
viability at 100 µM [2]: 23.5%
IC50 [2]: 24.8 ± 1.9 µM
IC50 [3]: 13.8 to 32.1 µM
IC50 [4]: 67.7 ± 3.4 µM
viability at 3.125 µM [5]: 100%
viability at 1.56 µM [5]: 100%
viability at 6.25 µM [5]: 100%
viability at 12.5 µM [5]: 93.6%
viability at 25 µM [5]: 71.7%
viability at 50 µM [5]: 54.8%
viability at 100 µM [5]: 43.3%
viability at 1.56 µM [6]: 100%
viability at 3.125 µM [6]: 100%
viability at 6.25 µM [6]: 94.7%
viability at 12.5 µM [6]: 79.3%
viability at 25 µM [6]: 65.2%
viability at 50 µM [6]: 58%
viability at 100 µM [6]: 40.4%
IC50 [6]: 62.8 ± 3.3 µM
viability at 1.56 µM [7]: 100%
viability at 3.125 µM [7]: 85.9%
viability at 6.25 µM [7]: 63.5%
viability at 12.5 µM [7]: 48.1%
viability at 25 µM [7]: 33.7%
viability at 50 µM [7]: 25.8%
viability at 100 µM [7]: 17%
IC50 [7]: 13.8 ± 1 µM

COc1ccc(/C=N/N=C(\C)c2cc3ccccc3o2)cc1OC [Compound 9, (E)-1-[1-(benzofuran-2-yl)ethylidene]-2-((E)-3,4-dimethoxybenzylidene)hydrazine]
viability at 1.56 µM [1]: 100%
viability at 3.125 µM [1]: 94.4%
viability at 6.25 µM [1]: 78.2%
viability at 12.5 µM [1]: 60.5%
viability at 25 µM [1]: 49.6%
viability at 50 µM [1]: 36.8%
viability at 100 µM [1]: 26.2%
IC50 [1]: 26.4 ± 2.1 µM
melting point: 130 to 132 °C
viability at 1.56 µM [2]: 100%
viability at 3.125 µM [2]: 96.1%
viability at 6.25 µM [2]: 75.8%
viability at 12.5 µM [2]: 60.2%
viability at 25 µM [2]: 52.6%
viability at 50 µM [2]: 44.8%
viability at 100 µM [2]: 31.2%
IC50 [2]: 32.1 ± 2.2 µM
IC50 [3]: 13.8 to 32.1 µM
IC50 [4]: 82.3 ± 4.3 µM
viability at 3.125 µM [5]: 100%
viability at 1.56 µM [5]: 100%
viability at 6.25 µM [5]: 99.7%
viability at 12.5 µM [5]: 85.2%
viability at 25 µM [5]: 74.5%
viability at 50 µM [5]: 60.6%
viability at 100 µM [5]: 47.9%
viability at 1.56 µM [6]: 100%
viability at 3.125 µM [6]: 96%
viability at 6.25 µM [6]: 79.5%
viability at 12.5 µM [6]: 64.2%
viability at 25 µM [6]: 50.6%
viability at 50 µM [6]: 38.2%
viability at 100 µM [6]: 25.3%
IC50 [6]: 28.1 ± 2.3 µM
viability at 1.56 µM [7]: 100%
viability at 3.125 µM [7]: 92%
viability at 6.25 µM [7]: 73.2%
viability at 12.5 µM [7]: 50.4%
viability at 25 µM [7]: 37.1%
viability at 50 µM [7]: 28.2%
viability at 100 µM [7]: 20.3%
IC50 [7]: 17 ± 1.4 µM

— paper PMC9556824, “Design, synthesis and computational study of new benzofuran hybrids as dual PI3K/VEGFR2 inhibitors targeting cancer” (Scientific Reports, 2022)
